Assay [1] can be described thus: fluconazole-exposed Candida albicans growth modulators – fluorescence, retest, confirmation (AID 2467). The format is functional, cell-based.
Assay [2] in a line: NIH-3T3 fibroblast cytotoxicity, dose response, cytotoxicity control, cell-based, fluorescence, Alamar Blue, secondary assay (AID 2327).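 Further: NIH-3T3 mouse fibroblasts cultured with fluconazole at 8 µg/mL.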 Format: functional. (In general: Alamar Blue is a resazurin reagent that responds to reducing activity.)
The target of assay [3] is T1, Calpain-2 catalytic subunit (Sus scrofa, UniProt P43367).
T1 sequence (P43367 whole entry): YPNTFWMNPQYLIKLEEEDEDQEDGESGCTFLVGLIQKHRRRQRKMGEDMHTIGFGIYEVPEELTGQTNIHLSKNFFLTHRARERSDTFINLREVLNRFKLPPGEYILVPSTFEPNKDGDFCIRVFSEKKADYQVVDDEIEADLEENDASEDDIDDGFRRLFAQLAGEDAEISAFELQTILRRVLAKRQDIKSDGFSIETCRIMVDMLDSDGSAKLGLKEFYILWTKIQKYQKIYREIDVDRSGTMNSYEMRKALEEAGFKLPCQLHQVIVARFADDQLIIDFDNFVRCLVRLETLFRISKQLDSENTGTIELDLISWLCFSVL
Put plainly: m-calpain protease blockers, concentration series – biochemical, fluorogenic peptide substrate, dose response (AID 1420). The format is functional.

In assay [4] the target is FAD-linked sulfhydryl oxidase ALR (Homo sapiens, UniProt P55789). The experiment in a line: ALR-catalysed DTT oxidation blockers – biochemical, H2O2 detection, luminescence, cherry-pick, dose response (AID 493248).
The target of assay [5] is T2, Heat shock factor protein 1 (Mus musculus, UniProt P38532).
T2 sequence (P38532 whole entry): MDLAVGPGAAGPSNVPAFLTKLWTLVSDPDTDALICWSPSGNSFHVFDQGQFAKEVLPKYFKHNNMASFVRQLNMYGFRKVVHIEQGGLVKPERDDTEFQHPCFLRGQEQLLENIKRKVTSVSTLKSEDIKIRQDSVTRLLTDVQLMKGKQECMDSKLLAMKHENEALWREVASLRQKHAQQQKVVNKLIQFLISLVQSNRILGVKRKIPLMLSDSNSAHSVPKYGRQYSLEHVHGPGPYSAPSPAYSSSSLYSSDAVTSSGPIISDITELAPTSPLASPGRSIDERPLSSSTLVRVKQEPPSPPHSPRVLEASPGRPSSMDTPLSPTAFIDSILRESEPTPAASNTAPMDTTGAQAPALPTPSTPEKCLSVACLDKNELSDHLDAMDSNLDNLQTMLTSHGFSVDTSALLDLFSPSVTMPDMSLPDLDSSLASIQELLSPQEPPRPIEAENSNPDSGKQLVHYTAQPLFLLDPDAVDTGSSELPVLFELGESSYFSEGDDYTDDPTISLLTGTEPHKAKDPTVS
Put plainly: enhancement of HSF1-driven luciferase signal – cell-based, NIH3T3, luminescence, dose retest, confirmation (AID 435004).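 Further: stress induced by proteasome inhibitor MG132 added 30 min after compound; luciferase reporter driven by HSF1 response element in NIH3T3 cells; actives raise luminescence as potentiators of the MG132 stress response.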 The format is functional.

The target in assay [6] is T3, RNA-binding protein pos-1 (Caenorhabditis elegans, UniProt G5EF15).
T3 sequence (G5EF15 whole entry): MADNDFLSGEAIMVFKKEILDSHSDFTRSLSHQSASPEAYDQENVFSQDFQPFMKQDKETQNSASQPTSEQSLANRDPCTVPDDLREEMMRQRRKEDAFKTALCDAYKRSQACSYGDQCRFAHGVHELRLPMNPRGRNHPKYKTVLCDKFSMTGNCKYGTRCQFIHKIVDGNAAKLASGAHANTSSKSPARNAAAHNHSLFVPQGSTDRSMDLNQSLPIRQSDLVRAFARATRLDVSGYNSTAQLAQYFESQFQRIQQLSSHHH
The experiment in a line: disruptors of C. elegans POS-1 RNA interaction – biochemical, fluorescence polarization, dose response (AID 1964).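 Further: purified POS-1 fused to maltose binding protein made in E. coli; potency of compounds blocking POS-1 binding to fluorescent RNA.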

For assay [7], the target named is T4, Zinc finger protein mex-5 (Caenorhabditis elegans, UniProt Q9XUB2).
T4 sequence (Q9XUB2 whole entry): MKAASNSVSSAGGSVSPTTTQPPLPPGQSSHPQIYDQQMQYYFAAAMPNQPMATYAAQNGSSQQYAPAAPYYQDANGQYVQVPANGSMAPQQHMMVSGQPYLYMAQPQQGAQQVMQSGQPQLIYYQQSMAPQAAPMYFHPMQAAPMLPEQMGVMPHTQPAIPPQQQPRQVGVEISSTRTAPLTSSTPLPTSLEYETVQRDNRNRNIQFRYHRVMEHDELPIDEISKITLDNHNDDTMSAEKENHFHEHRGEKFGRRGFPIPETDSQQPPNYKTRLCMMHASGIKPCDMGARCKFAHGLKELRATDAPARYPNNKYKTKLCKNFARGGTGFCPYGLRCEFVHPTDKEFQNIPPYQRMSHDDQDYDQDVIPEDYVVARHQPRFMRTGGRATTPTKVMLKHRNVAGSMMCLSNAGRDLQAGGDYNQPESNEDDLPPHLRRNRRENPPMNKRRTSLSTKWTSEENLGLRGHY
Put plainly: potency of MEX-5 RNA-binding blockers – biochemical, C. elegans, fluorescence polarization, dose response (AID 1960). In general terms: Polarisation of emitted light reports the rotation of a fluorescent probe.

Assay [8] deals with T5, Corticotropin-releasing factor receptor 2/Corticotropin-releasing factor-binding protein (Homo sapiens, UniProt P24387+Q13324).
T5 sequence (Q13324 whole entry): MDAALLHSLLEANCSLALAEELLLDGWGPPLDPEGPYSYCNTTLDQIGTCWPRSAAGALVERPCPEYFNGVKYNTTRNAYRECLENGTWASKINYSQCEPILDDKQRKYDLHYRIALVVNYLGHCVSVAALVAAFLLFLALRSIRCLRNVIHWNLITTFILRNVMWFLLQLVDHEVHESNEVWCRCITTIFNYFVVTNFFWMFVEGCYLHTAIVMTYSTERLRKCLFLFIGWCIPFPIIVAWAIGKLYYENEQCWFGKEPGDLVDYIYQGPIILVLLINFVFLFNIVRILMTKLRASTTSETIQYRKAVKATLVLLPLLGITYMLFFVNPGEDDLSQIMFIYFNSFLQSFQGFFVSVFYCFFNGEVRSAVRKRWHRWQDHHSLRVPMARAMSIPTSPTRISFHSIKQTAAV
T5 sequence (P24387 whole entry): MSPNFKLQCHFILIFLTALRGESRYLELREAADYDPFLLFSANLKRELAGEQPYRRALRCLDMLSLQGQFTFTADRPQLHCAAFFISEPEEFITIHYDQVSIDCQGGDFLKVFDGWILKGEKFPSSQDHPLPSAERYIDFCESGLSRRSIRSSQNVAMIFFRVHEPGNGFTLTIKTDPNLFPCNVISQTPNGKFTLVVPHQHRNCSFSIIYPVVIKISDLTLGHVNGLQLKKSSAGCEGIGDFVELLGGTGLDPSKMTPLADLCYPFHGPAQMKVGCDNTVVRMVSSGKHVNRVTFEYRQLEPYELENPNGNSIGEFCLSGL
The experiment in a line: Dose Response confirmation of uHTS hits for small molecule antagonists of the CRF-binding protein and CRF-R2 receptor complex. The format is functional. The settings on record: read-out: IC50_Mean.

Assay [9] concerns the target T5, Corticotropin-releasing factor receptor 2/Corticotropin-releasing factor-binding protein. The experiment in a line: activators of CRF receptor 2 with binding protein – uHTS hits, confirmation (AID 602473). The format is functional. The settings on record: read-out: EC50_Mean.
Assay [10] can be described thus: Luminescence Cell-Based Dose Retest to Confirm Inhibitors of Cancer Stem Cells. [Related pubchem assays (depositor defined):AID2717, AID2721]. The format is functional. The settings on record: Homo sapiens.
The target in assay [11] is T6, Polyadenylate-binding protein 1 (Homo sapiens, UniProt P11940). The experiment in a line: MLLE domain peptide-binding blockers, IC50 – biochemical, fluorescence polarization, FITC-PAM2 peptide, dose response (AID 602259). Format: functional. The settings on record: read-out: IC50_Mean.
The target of assay [12] is T6, Polyadenylate-binding protein 1. The experiment in a line: MLLE binding blockers, Cy5 peptide tracer – biochemical, fluorescence polarization, Cy5-PAM2 peptide, secondary, miRNA deadenylation inhibitor project, dose response (AID 602260). The settings on record: read-out: IC50_Mean. Format: functional.
The target of assay [13] is T7, Ubiquitin-conjugating enzyme E2 N (Homo sapiens, UniProt P61088).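 Further: Dose-response confirmation in a TR-FRET assay detecting UBC13-driven polyubiquitin chain formation, inhibition measured.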
T7 sequence (P61088 whole entry): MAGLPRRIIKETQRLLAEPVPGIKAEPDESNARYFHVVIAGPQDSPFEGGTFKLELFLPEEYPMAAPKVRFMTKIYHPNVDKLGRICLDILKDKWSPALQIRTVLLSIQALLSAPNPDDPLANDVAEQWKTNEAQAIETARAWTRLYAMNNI
The format is functional.

The text below walks through data of ChEMBL document CHEMBL1201862, “PubChem BioAssay data set” (2004).

Molecules are shown by their SMILES. Active and inactive are the calls of the source.

Sequence of FAD-linked sulfhydryl oxidase ALR (P55789 whole entry): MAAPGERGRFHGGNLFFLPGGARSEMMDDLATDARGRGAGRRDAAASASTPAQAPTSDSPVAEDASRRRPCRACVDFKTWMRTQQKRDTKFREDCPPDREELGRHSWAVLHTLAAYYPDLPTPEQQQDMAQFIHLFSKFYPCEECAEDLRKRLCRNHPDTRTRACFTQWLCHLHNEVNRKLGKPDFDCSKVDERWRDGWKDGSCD
T6 sequence (P11940 whole entry, the tested form may be a part): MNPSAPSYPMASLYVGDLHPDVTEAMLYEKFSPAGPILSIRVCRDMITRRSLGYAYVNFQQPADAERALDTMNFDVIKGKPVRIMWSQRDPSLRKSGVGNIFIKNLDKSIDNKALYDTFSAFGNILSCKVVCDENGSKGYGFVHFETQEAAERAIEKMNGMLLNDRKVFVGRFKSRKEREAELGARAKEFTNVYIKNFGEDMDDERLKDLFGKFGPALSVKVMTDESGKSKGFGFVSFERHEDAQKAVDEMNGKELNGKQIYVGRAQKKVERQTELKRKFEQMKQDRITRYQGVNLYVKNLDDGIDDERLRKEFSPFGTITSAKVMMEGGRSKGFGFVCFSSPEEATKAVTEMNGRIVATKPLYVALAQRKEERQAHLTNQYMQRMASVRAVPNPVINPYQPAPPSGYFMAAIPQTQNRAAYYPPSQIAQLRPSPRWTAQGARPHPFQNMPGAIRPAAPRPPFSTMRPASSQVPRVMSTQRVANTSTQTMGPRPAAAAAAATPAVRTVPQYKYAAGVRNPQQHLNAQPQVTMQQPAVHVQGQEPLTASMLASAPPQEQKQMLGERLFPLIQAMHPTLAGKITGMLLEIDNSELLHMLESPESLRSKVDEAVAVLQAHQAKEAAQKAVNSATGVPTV

For `CC(C)CCOC(=O)C1C(c2ccccc2)C(C(=O)O)C1c1ccccc1` (centres undefined), the EC50 in [1] was 4.96 µM (active); in assay [2], > 160 µM (inconclusive). A word on the AC50: it is the concentration giving half of the maximal activity seen. `COc1ccc(N2CCN(C(c3cccs3)C(C)NS(C)(=O)=O)CC2)cc1` (centres undefined): the IC50 in assay [3] is recorded as 5.8 µM (not active). In addition, in assay [4], the AC50 is 1.67 µM (active). As to `COc1ccc(N(C(=O)Cn2nnc3ccccc32)C(C(=O)NC(C)(C)C)c2ccc(OC)c(O)c2)cc1` (centres undefined), the EC50 in assay [1] was 1.62 µM (active); in [2], > 150 µM (inactive). As for `CS(=O)(=O)c1ccc(Cl)c(C(=O)NCC2CCCCC2)c1`, the EC50 in [5] was > 260 µM (inactive). As for `O=C(CCS(=O)(=O)Cc1ccccc1)Nc1nnc(C(F)(F)F)s1`, the figures for the EC50 in assay [1] and in [2] were 0.741 µM (active) and > 160 µM (inactive), respectively. In the case of `N=C(N)NS(=O)(=O)c1ccc(NC(=S)NC(=O)/C=C/c2cccs2)cc1`, the EC50 in [6] and in assay [7] was > 300 µM (not active) in each case.

As to `NC(=O)C1(N2CCCCC2)CCN(Cc2nc(-c3cccs3)no2)CC1`, the EC50 in [6] and in assay [7] was > 300 µM (not active) in each case. For `CC(Oc1cc2oc(=O)c3c(c2cc1Cl)CCCC3)C(=O)NCc1ccncc1` (centres undefined), the values for the EC50 in assay [1] and in assay [2] were > 38 µM (not active) and > 150 µM (inactive), respectively. For the compound `O=C(c1ccco1)N1CCN=C1SCc1ccccc1Cl`, in assay [8], the IC50 is > 47.1 µM (inactive). Moreover, the EC50 in assay [9] is > 53 µM (inactive). Also, the AC50 in assay [4] was 0.41 µM (active). As to `CCCCCNC(=O)C1CCC(Cn2c(=S)[nH]c3ccccc3c2=O)CC1` (centres undefined), in assay [5], the EC50 is > 260 µM (inactive). Consider `CC(=O)Nc1ccc(SC[C@H](C)CN2CC[C@H](C(C)(C)C)CCC2=O)cc1`, for which the AC50 is 1.47 µM (active) in assay [10] and 0.687 µM (active) in [4]. In addition, the IC50 in [11] and in assay [12] was > 66 µM (inactive) in each case. `O=C(O)CCC(=O)N1N=C(c2cccs2)CC1c1cn(-c2ccccc2)nc1-c1ccccc1` (centres undefined): the values for the EC50 in [6] and in assay [7] were 46.5 µM (active) and > 300 µM (not active), respectively. On to `CN(C)CCCSc1nc2ccccc2s1`, for which the AC50 in assay [4] is 0.171 µM (active). For `COc1ccc(S(=O)(=O)Nc2cc3c4c(oc3c3ccccc23)CCCC4=O)cc1`, the EC50 in assay [5] is > 260 µM (inactive). On the same count and under the same terms, the figure for `COc1ccc(OC)c(NC(=O)CNC(c2ccccc2)c2ccccc2)c1` is > 260 µM (inactive). Regarding `CCc1cccc(NC(=O)CSC2=NS(=O)(=O)c3ccccc32)c1`, the IC50 in assay [13] is > 20 µM (inactive). On to `COc1ccccc1N1CCN(C(=O)C(CC(C)C)NC(=O)C2CCCCC2)CC1` (centres undefined), for which the EC50 in [5] is > 260 µM (inactive). Regarding `Cc1ccc(S(=O)(=O)Nc2c(C(=O)O)[nH]c3ccccc23)c(C)c1`, the AC50 in [4] was 12.7 µM (active). As to `CCN1CCN(C(=O)c2cc(-c3ccco3)nc3ccccc23)CC1`, the IC50 in assay [13] is > 20 µM (inactive). For `O=S(=O)(c1ccc(Oc2ccccc2)cc1)N1CCOCC1`, in assay [5], the EC50 is > 260 µM (inactive). The same measure, in the same setting: then `Cc1ccc(CNC(=O)Cn2ccc3ccccc3c2=O)o1`, with > 260 µM (inactive). Regarding `N#CCC(=O)Nc1ccc(C(=O)NCc2ccccn2)cc1`, in assay [4], the AC50 is 2.41 µM (active). `CC1=C(C(=O)OCc2ccccc2)C(c2ccccc2[N+](=O)[O-])NC(=O)N1C` (centres undefined): the results for the EC50 in assay [6] and in [7] were > 300 µM (not active) and 10.9 µM (active), respectively.

As to `CN1C(=O)c2ccccc2NC(=O)[C@]12O[C@@H]2c1cccc(O)c1`, the EC50 is 4.13 µM (active) in assay [6] and 35.1 µM (active) in assay [7]. As for `CC(C)C[C@@H]1CN=C(N)N1C[C@@H]1CCCN1C[C@H](C)N1C[C@@H](Cc2ccccc2)N(CCc2ccc(Cl)c(Cl)c2)C1=N`, the IC50 in [13] was > 20 µM (inactive).

Take `CCOC(=O)N1CCN(C(=O)Cc2ccc(-n3c(=S)[nH]c4ccccc4c3=O)cc2)CC1`: in assay [13], the IC50 is > 20 µM (inactive). The same measure, in the same setting: the figure for `CC1CCCC(NC(=O)CSc2ncnc3ccccc23)C1C` (centres undefined) is > 20 µM (inactive). Take `CC1(C)Cc2ccccc2C(N/N=C/c2ccc([N+](=O)[O-])cc2)=N1`: the EC50 was > 38 µM (not active) in [1] and > 150 µM (inactive) in assay [2].
